The experiment has as its target T1, human PDE2A1 (Homo sapiens, UniProt O00408).
T1 construct: GST; purchased BPS Bioscience (San Diego, Calif.) 60020; host or cells: insect cells
In words: IMAP FP PDE selectivity panel, human PDE2A1. The settings on record: Lab B; read-out: Human PDE2 Ki (nM) Lab B. The format is biochemical. The method, boiled down: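 Human PDE2A1 tested alongside PDE1–11 by IMAP fluorescence polarization at room temperature. Substrate was 50 nM FAM-cAMP plus 1000 nM cGMP, buffer pH 7.2 with MgCl2 and DTT, enzyme set for 20% conversion. Ten 3-fold compound dilutions; 60 min reaction, then IMAP binding solution, 1 h, parallel/perpendicular fluorescence read.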

Where only a bound is given, the exact number is not on record here.

T1 sequence (O00408 1-920 isoform O00408-2): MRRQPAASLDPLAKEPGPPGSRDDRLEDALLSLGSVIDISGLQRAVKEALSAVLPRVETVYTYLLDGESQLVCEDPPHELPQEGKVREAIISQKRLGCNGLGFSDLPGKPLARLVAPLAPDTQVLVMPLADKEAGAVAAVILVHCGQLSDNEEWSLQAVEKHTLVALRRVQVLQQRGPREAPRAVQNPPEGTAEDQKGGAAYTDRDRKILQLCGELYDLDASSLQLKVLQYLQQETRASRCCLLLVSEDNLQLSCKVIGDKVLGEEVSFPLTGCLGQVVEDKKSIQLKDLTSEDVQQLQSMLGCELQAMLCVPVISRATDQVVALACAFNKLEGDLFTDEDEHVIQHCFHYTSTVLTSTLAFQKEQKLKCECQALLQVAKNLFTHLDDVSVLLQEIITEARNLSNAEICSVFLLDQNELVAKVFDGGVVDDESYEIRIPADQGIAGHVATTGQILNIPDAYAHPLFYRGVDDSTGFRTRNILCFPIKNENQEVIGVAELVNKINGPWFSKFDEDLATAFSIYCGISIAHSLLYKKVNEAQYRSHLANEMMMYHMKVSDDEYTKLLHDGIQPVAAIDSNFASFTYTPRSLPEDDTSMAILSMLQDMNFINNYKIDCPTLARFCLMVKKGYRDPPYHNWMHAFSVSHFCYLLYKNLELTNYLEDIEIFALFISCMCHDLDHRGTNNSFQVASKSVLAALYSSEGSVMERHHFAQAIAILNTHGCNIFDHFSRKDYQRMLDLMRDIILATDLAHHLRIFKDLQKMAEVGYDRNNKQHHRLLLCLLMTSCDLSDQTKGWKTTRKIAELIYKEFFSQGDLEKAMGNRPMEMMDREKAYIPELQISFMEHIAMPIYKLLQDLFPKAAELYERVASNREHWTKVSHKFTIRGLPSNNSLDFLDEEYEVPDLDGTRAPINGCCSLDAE

With `Cc1cc(NC(CO)c2ccc(C(F)(F)F)cc2)n2ncnc2n1` (centres unmarked) [Example 88, 2-[(5-Methyl[1,2,4]triazolo[1,5-a]pyrimidin-7-yl)amino]-2-[4-(trifluoromethyl)phenyl]ethanol], the Ki – broadly, the dissociation constant of the complex between target and ligand, obtained from inhibition or displacement – was found to be 736 nM.

Take `Cc1cc(N[C@@H](c2ccc(C(F)(F)F)cc2)[C@@H](C)O)n2ncnc2n1` [Example 89, (1S,2R)-1-[(5-Methyl[1,2,4]triazolo[1,5-a]pyrimidin-7-yl)amino]-1-[4-(trifluoromethyl)phenyl]propan-2-ol]: the inhibition constant (Ki) came out at 82 nM.

Regarding `Cc1cc(N[C@@H](c2ccc(C(F)(F)F)cc2)[C@H](C)O)n2ncnc2n1` [Example 90, (1S,2S)-1-[(5-Methyl[1,2,4]triazolo[1,5-a]pyrimidin-7-yl)amino]-1-[4-(trifluoromethyl)phenyl]propan-2-ol], the inhibition constant Ki was roughly 1790 nM.

Consider `Cc1cc(N[C@@H](c2ccc(OC(F)(F)F)cc2F)C(C)(C)O)n2ncnc2n1` [Example 93, (1S)-1-[2-Fluoro-4-(trifluoromethoxy)phenyl]-2-methyl-[(5-methyl-[1,2,4]triazolo[1,5-a]pyrimidin-7-yl)amino]propan-2-ol], for which the inhibition constant (Ki) worked out at 742 nM.

Consider `Cc1cc(N[C@@H](c2ccc(C(F)(F)F)cc2)C(C)(C)O)n2ncnc2n1` [Example 94, (1S)-2-Methyl-1-[(5-methyl [1,2,4]triazolo[1,5-a]pyrimidin-7-yl)amino]-1-[4-(trifluoromethyl)phenyl]propan-2-ol], for which the Ki was 17 nM.

On to `Cc1cc(N[C@H](c2ccc(C(F)(F)F)cc2)C(C)(C)O)n2ncnc2n1` [Example 95, (1R)-2-Methyl-1-[(5-methyl [1,2,4]triazolo[1,5-a]pyrimidin-7-yl)amino]-1-[4-(trifluoromethyl)phenyl]propan-2-ol], for which the Ki was greater than 2960 nM.

`Cc1cc(N[C@@H](c2ccc(OC(F)(F)F)cc2)C(C)(C)O)n2ncnc2n1` [Example 96, (1S)-2-Methyl-1-[(5-methyl [1,2,4]triazolo[1,5-a]pyrimidin-7-yl)amino]-1-[4-(trifluoromethoxy)phenyl]propan-2-ol]: the inhibitory constant (Ki) was found to be 15 nM.

Take `Cc1cc(N[C@H](c2ccc(OC(F)(F)F)cc2)C(C)(C)O)n2ncnc2n1` [Example 97, (1R)-2-Methyl-1-[(5-methyl [1,2,4]triazolo[1,5-a]pyrimidin-7-yl)amino]-1-[4-(trifluoromethoxy)phenyl]propan-2-ol]: the inhibition constant (Ki) is greater than 2960 nM.

For the compound `Cc1cc(N[C@H](c2ccc(C(F)(F)F)c(F)c2)C(C)(C)O)n2ncnc2n1` [Example 99, (1R)-1-[3-Fluoro-4-(trifluoromethyl)phenyl]-2-methyl-1-[(5-methyl [1,2,4]triazolo[1,5-a]pyrimidin-7-yl)amino]propan-2-ol], the Ki was 555 nM.

As for `Cc1cc(N[C@@H](c2ccc(OC(F)(F)F)cc2Cl)C(C)(C)O)n2ncnc2n1` [Example 100, (1S)-1-[2-Chloro-4-(trifluoromethoxy)phenyl]-2-methyl-1-[(5-methyl[1,2,4]triazolo[1,5-a]pyrimidin-7-yl)amino]propan-2-ol], the inhibition constant (Ki) was determined as 4.3 nM.

For `Cc1cc(N[C@H](c2ccc(OC(F)(F)F)cc2Cl)C(C)(C)O)n2ncnc2n1` [Example 101, (1R)-1-[2-Chloro-4-(trifluoromethoxy)phenyl]-2-methyl-1-[(5-methyl[1,2,4]triazolo[1,5-a]pyrimidin-7-yl)amino]propan-2-ol], the Ki is 27 nM.

For `Cc1cc(N[C@@H](c2ccc(OC(F)(F)F)c(Cl)c2)C(C)(C)O)n2ncnc2n1` [Example 102, (1S)-1-[3-Chloro-4-(trifluoromethoxy)phenyl]-2-methyl-1-[(5-methyl[1,2,4]triazolo[1,5-a]pyrimidin-7-yl)amino]propan-2-ol], the Ki was 14 nM.

In the case of `Cc1cc(N[C@H](c2ccc(OC(F)(F)F)c(Cl)c2)C(C)(C)O)n2ncnc2n1` [Example 103, (1R)-1-[3-Chloro-4-(trifluoromethoxy)phenyl]-2-methyl-1-[(5-methyl[1,2,4]triazolo[1,5-a]pyrimidin-7-yl)amino]propan-2-ol], the Ki stood at 34 nM.

Consider `Cc1cc(N[C@@H](c2ccc(F)c(OC(F)(F)F)c2)C(C)(C)O)n2ncnc2n1` [Example 130, (1S)-1-[4-Fluoro-3-(trifluoro-methoxy)phenyl]-2-methyl-1-[(5-methyl[1,2,4]triazolo[1,5-a]pyrimidin-7-yl)amino]propan-2-ol], for which the Ki was 2290 nM.

Consider `Cc1cc(N[C@H](c2ccc(F)c(OC(F)(F)F)c2)C(C)(C)O)n2ncnc2n1` [Example 131, (1R)-1-[4-Fluoro-3-(trifluoro-methoxy)phenyl]-2-methyl-1-[(5-methyl[1,2,4]triazolo[1,5-a]pyrimidin-7-yl)amino]propan-2-ol], for which the inhibition constant (Ki) was greater than 2960 nM.

On to `Cc1cc(N[C@H](CC(C)(C)O)c2ccc(C(F)(F)F)c(F)c2)n2ncnc2n1` [Example 152, (4R)-4-[3-Fluoro-4-(trifluoromethyl)phenyl]-2-methyl-4-[(5-methyl[1,2,4]triazolo[1,5-a]pyrimidin-7-yl)amino]butan-2-ol], for which the Ki amounted to 766 nM.

As for `Cc1cc(N[C@@H](CC(C)(C)O)c2ccc(C(F)(F)F)c(F)c2)n2ncnc2n1` [Example 153, (4S)-4-[3-Fluoro-4-(trifluoromethyl)phenyl]-2-methyl-4-[(5-methyl[1,2,4]triazolo[1,5-a]pyrimidin-7-yl)amino]butan-2-ol], the inhibition constant Ki is greater than 2960 nM.

Regarding `Cc1cc(N[C@](C)(c2ccc(OC(F)(F)F)cc2)C(C)(C)O)n2ncnc2n1` [Example 154, (3R)-2-Methyl-3-[(5-methyl[1,2,4]triazolo[1,5-a]pyrimidin-7-yl)amino]-3-[4-(trifluoromethoxy)phenyl]butan-2-ol], the Ki was greater than 2960 nM.

For `Cc1cc(N[C@@](C)(c2ccc(OC(F)(F)F)cc2)C(C)(C)O)n2ncnc2n1` [Example 155, (3S)-2-Methyl-3-[(5-methyl[1,2,4]triazolo[1,5-a]pyrimidin-7-yl)amino]-3-[4-(trifluoromethoxy)phenyl]butan-2-ol], the inhibition constant Ki turned out to be 525 nM.

Regarding `Cc1cc(N[C@@H](c2ccc(C(F)(F)F)c(F)c2)C(C)(C)C)n2nc(CF)nc2n1` [Example 191, 2-(Fluoromethyl)-N-{(1R)-1-[3-fluoro-4-(trifluoromethyl)phenyl]-2,2-dimethylpropyl}-5-methyl[1,2,4]triazolo[1,5-a]pyrimidin-7-amine], the Ki came to 67 nM.

As for `Cc1cc(NC2(c3ccc(C(F)(F)F)c(F)c3)CC2)n2nc(C)nc2n1` [Example 192, N-(1-(3-Fluoro-4-(trifluoromethyl)phenyl)cyclopropyl)-2,5-dimethyl-[1,2,4]triazolo [1,5-a]pyrimidin-7-amine], the Ki is 91 nM.

Take `CCc1nc2nc(C)cc(NC3(c4ccc(C(F)(F)F)c(F)c4)CC3)n2n1` [Example 193, 2-Ethyl-N-(1-(3-fluoro-4-(trifluoromethyl)phenyl)cyclopropyl)-5-methyl-[1,2,4]triazolo [1,5-a]pyrimidin-7-amine]: the inhibitory constant (Ki) was determined as 142 nM.

With `CCCc1nc2nc(C)cc(NC3(c4ccc(C(F)(F)F)c(F)c4)CC3)n2n1` [Example 194, N-(1-(3-Fluoro-4-(trifluoromethyl)phenyl)cyclopropyl)-5-methyl-2-propyl-[1,2,4]triazolo [1,5-a]pyrimidin-7-amine], the Ki came to 113 nM.

With `Cc1cc(NC2(c3ccc(C(F)(F)F)c(F)c3)CC2)n2nc(C3CC3)nc2n1` [Example 195, 2-Cyclopropyl-N-(1-(3-fluoro-4-(trifluoromethyl)phenyl)cyclopropyl)-5-methyl-[1,2,4]triazolo [1,5-a]pyrimidin-7-amine], the Ki came to 144 nM.

As to `Cc1cc(NC2(c3ccc(C(F)(F)F)c(F)c3)CC2)n2nc(CO)nc2n1` [Example 196, (7-(1-(3-Fluoro-4-(trifluoromethyl)phenyl)cyclopropylamino)-5-methyl-[1,2,4]triazolo [1,5-a]pyrimidin-2-yl)methanol], the inhibition constant Ki is 321 nM.

As for `Cc1cc(NC2(c3ccc(C(F)(F)F)c(F)c3)CC2)n2nc(CF)nc2n1` [Example 197, N-(1-(3-Fluoro-4-(trifluoromethyl)phenyl)cyclopropyl)-2-(fluoromethyl)-5-methyl-[1,2,4]triazolo [1,5-a]pyrimidin-7-amine], the Ki worked out at 80 nM.

Take `Cc1cc(NC2(c3ccc(C(F)(F)F)c(F)c3)COC2)n2ncnc2n1` [Example 198, N-(3-(3-Fluoro-4-(trifluoromethyl)phenyl)oxetan-3-yl)-5-methyl-[1,2,4]triazolo [1,5-a]pyrimidin-7-amine]: the inhibition constant Ki came to 83 nM.

On to `Cc1cc(NC2(c3ccc(C(F)(F)F)cc3)COC2)n2ncnc2n1` [Example 199, 5-Methyl-N-(3-(4-(trifluoromethyl)phenyl)oxetan-3-yl)-[1,2,4]triazolo [1,5-a]pyrimidin-7-amine], for which the Ki was determined as 167 nM.

In the case of `Cc1cc(NC2(c3cccc(C(F)(F)F)c3F)COC2)n2ncnc2n1` [Example 200, N-(3-(2-Fluoro-3-(trifluoromethyl)phenyl)oxetan-3-yl)-5-methyl-[1,2,4]triazolo [1,5-a]pyrimidin-7-amine], the Ki is greater than 2960 nM.

Turning to `Cc1cc(NC2(c3ccc(C(F)(F)F)c(F)c3)CC2)n2nc(C(F)F)nc2n1` [Example 201, 2-(Difluoromethyl)-N-(1-(3-fluoro-4-(trifluoromethyl)phenyl)cyclopropyl)-5-methyl-[1,2,4]triazolo [1,5-a]pyrimidin-7-amine], the Ki was 131 nM.

As to `Cc1cc(N[C@@H](c2ccc(C(F)(F)F)c(F)c2)C(C)(C)C)n2nc(C)nc2n1` [Example 202, (R)-N-(1-(3-Fluoro-4-(trifluoromethyl)phenyl)-2,2-dimethylpropyl)-2,5-dimethyl-[1,2,4]triazolo [1,5-a]pyrimidin-7-amine], the Ki came out at 56 nM.

Consider `CCc1nc2nc(C)cc(N[C@@H](c3ccc(C(F)(F)F)c(F)c3)C(C)(C)C)n2n1` [Example 203, (R)-2-Ethyl-N-(1-(3-fluoro-4-(trifluoromethyl)phenyl)-2,2-dimethylpropyl)-5-methyl-[1,2,4]triazolo [1,5-a]pyrimidin-7-amine], for which the Ki was 33 nM.
